US7803930B2, “Antisense modulation of apolipoprotein B-expression” (Isis Pharmaceuticals, Inc., priority 2002, dated 2010)
In the oligonucleotide strings, read from the 5' end, every base follows the letter of its sugar. An asterisk marks phosphorothioate; unmarked linkages are phosphodiester. Other units and linkages are bracketed, terminal groups are in braces. A string of capitals states the bases alone. e = 2'-O-(2-methoxyethyl) (MOE); [5mC] = 5-methylcytosine; d = 2'-deoxy (DNA)

Columns and labels:
lipoprotein(a) = assay: Lipoprotein(a) particle secretion from primary human hepatocytes, ELISA; type: cell-based; settings: 24 hours
Method: Primary human hepatocytes (InVitro Technologies, Baltimore, Md.), cultured and transfected as described herein, were treated for 24 hours with 50 or 150 nM of ISIS 271009 (SEQ ID NO: 319), 281625 (SEQ ID NO: 224), 301012 (SEQ ID NO: 247) or 301027 (SEQ ID NO: 262). Cells were also treated with 150 nM of the control oligonucleotides ISIS 113529 (SEQ ID NO: 859) or ISIS 13650 (SEQ ID NO: 806). Untreated cells served as a control. Following 24 hours of oligonucleotide treatment, the amount of lipoprotein(a) in the culture medium collected from the treated cells was measured using a commercially available ELISA kit (ALerCHEK Inc., Portland, Me.). The results are the average of three experiments and are expressed as percent change in lipoprotein(a) secretion relative to untreated controls.

[1] = Toxicity in C57BL/6 mice, two weeks (Example 48): liver enzyme levels, body, liver and spleen weight; type: in vivo, mouse; parameters: Weight BODY / Weight LIVER / Weight SPLEEN: unit not given here; settings: 25 mg/kg i.p. twice a week
Method: C57BL/6 mice were divided into two groups—one group receiving oligonucleotide treatment and control animals receiving saline treatment. After overnight fasting, mice were dosed intraperitoneally twice a week with saline or 25 mg/kg of one of several oligonucleotides for two weeks. The antisense oligonucleotides used in the present study were ISIS 233172 (SEQ ID NO: 835) and ISIS 233175 (SEQ ID NO: 838), both targeted to rabbit apolipoprotein B, and ISIS 281625 (SEQ ID NO: 224), ISIS 301012 (SEQ ID NO: 247), and ISIS 301027 (SEQ ID NO: 262), targeted to human apolipoprotein B. At study termination and forty eight hours after the final injections, animals were sacrificed and evaluated for liver enzyme levels, body weight, liver weight, and spleen weight.

[2] = C57BL/6NTac-TgN(APOB100) transgenic mice (Example 47): liver enzyme, cholesterol, LDL-cholesterol and triglyceride levels; type: in vivo, mouse; settings: C57BL/6NTac-TgN(APOB100) mice, 25 mg/kg i.p. twice a week, eight weeks; for AST and ALT levels: normal levels ~300 IU/L
Method: C57BL/6NTac-TgN(APOB100) mice were divided into two groups—one group receiving oligonucleotide treatment and control animals receiving saline treatment. After overnight fasting, mice were dosed intraperitoneally twice a week with saline or 25 mg/kg ISIS 281625 (SEQ ID No: 224) or ISIS 301012 (SEQ ID No: 247) for eight weeks. At study termination and forty eight hours after the final injections, animals were sacrificed and evaluated for target mRNA levels in liver, cholesterol and triglyceride levels, and liver enzyme levels. In addition, the endogenous mouse apolipoprotein B levels in liver were measured to evaluate any effects of these antisense oligonucletides targeted to the human apolipoprotein B.

Substance	% Change in lipoprotein(a) secretion (lipoprotein(a); 150 nM)	% Change in lipoprotein(a) secretion (lipoprotein(a); 50 nM) [%]	Liver Enzymes ALT [1] [IU/L]	Liver Enzymes AST [1] [IU/L]	Weight BODY [1]	Weight LIVER [1]	Weight SPLEEN [1]	also measured
113529 (antisense e[5mC]*eT*e[5mC]*eT*eT*dA*d[5mC]*dT*dG*dT*dG*d[5mC]*dT*dG*dT*eG*eG*eA*e[5mC]*eA) [compound 113529]	+14%							
271009 (antisense eG*e[5mC]*e[5mC]*eT*e[5mC]*dA*dG*dT*d[5mC]*dT*dG*d[5mC]*dT*dT*d[5mC]*eG*e[5mC]*eG*e[5mC]*e[5mC]) [compound 271009]	−42%	−25						
281625 (antisense eA*eG*eG*eT*eT*dA*d[5mC]*d[5mC]*dA*dG*d[5mC]*d[5mC]*dA*d[5mC]*dA*eT*eG*e[5mC]*eA*eG) [compound 281625]	−24%	−26	36.2	89.5	20.9	1.2	0.1	Lipoproteins CHOL [2]: 152.0 mg/dL; Lipoproteins HDL [2]: 84.6 mg/dL; Lipoproteins LDL [2]: 49.8 mg/dL; Lipoproteins TRIG [2]: 171.1 mg/dL; Liver Enzymes ALT [2]: 363.8 IU/L; Liver Enzymes AST [2]: 265.8 IU/L
301012 (eG*e[5mC]*e[5mC]*eT*e[5mC]*dA*dG*dT*d[5mC]*dT*dG*d[5mC]*dT*dT*d[5mC]*eG*e[5mC]*eA*e[5mC]*e[5mC]) [compound 301012]	−37%	−27	21.2	50.6	21.3	1.1	0.1	Lipoproteins CHOL [2]: 145.1 mg/dL; Lipoproteins HDL [2]: 98.6 mg/dL; Lipoproteins LDL [2]: 36.6 mg/dL; Lipoproteins TRIG [2]: 157.8 mg/dL; Liver Enzymes ALT [2]: 137.4 IU/L; Liver Enzymes AST [2]: 208.4 IU/L
301027 (eG*e[5mC]*eT*e[5mC]*eA*d[5mC]*dT*dG*dT*dA*dT*dG*dG*dT*dT*eT*eT*eA*eT*e[5mC]; antisense) [compound 301027]	−44%	−33	221.3	455.3	21.2	1.3	0.1	
ISIS 281625: SEQ ID NO: 224, 2′-MOE gapmer targeted to human apolipoprotein B (antisense eA*eG*eG*eT*eT*dA*d[5mC]*d[5mC]*dA*dG*d[5mC]*d[5mC]*dA*d[5mC]*dA*eT*eG*e[5mC]*eA*eG)								Cholesterol levels relative to saline treatment [2]: slightly increased; triglyceride levels relative to saline treatment [2]: slightly decreased; AST and ALT levels [2]: increased, yet did not exceed normal levels
ISIS 301012: SEQ ID NO: 247, antisense oligonucleotide targeted to human apolipoprotein B (antisense GCCTCAGTCTGCTTCGCACC; chemistry not given here)								Cholesterol levels relative to saline treatment [2]: slightly increased; triglyceride levels relative to saline treatment [2]: slightly decreased; AST and ALT levels [2]: increased, yet did not exceed normal levels
ISIS 301027: SEQ ID NO: 262, 2′-MOE gapmer targeted to human apolipoprotein B (antisense eG*e[5mC]*eT*e[5mC]*eA*d[5mC]*dT*dG*dT*dA*dT*dG*dG*dT*dT*eT*eT*eA*eT*e[5mC])								levels of liver enzymes relative to saline treatment [1]: drastically increased
